The values that follow come from the METLIN SMRT retention time set (Domingo-Almenara et al. 2019).

The data set in a line: gradient 5% acetonitrile 3 min, to 50% in 2 min, to 85% in 15 min, held 3 min, 100 µL/min. As to conditions: column: Zorbax Extend-C18 2.1 x 50 mm; eluents: water / acetonitrile, 0.1% formic acid. In outline: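 Data were gathered over 3 months by HPLC coupled to a quadrupole time-of-flight mass spectrometer, operated in positive and negative ionization mode. Mixtures of ~100 pure standards ran on a Zorbax Extend-C18 column (2.1 × 50 mm, 1.8 μm) at 100 μL/min, with water and acetonitrile each containing 0.1% formic acid and dead and dwell volumes of 40 μL and 900 μL. Retention time was read from adduct peaks picked by computer and checked manually.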
The compound `Cc1ccsc1C(=O)Nc1cccn2nc(C(C)C)nc12` returned an RP-LC retention time of 986 s.
As for `CC(C)Cn1cc(CCNS(=O)(=O)c2cccc(Cl)c2)c2cccnc21`, the figure is 985 s.
As for `CC(=O)N1C[C@@H](C(=O)NCCc2c(C)noc2C)[C@H](c2nc(C)no2)C1`, the figure is 609 s; as for `Cc1cccc(NC(=O)N2[C@H]3CC[C@@H]2c2cncnc2C3)c1`, 674 s.
As for `Cc1nc(-c2csc(S(=O)(=O)N3CCC(C(=O)Nc4ccccn4)CC3)c2)no1`, the figure is 740 s; as for `O=C(CCc1c(-c2ccc(Cl)cc2)nc2ccccn12)NC1CCCC1`, 638 s.
Take `CCc1ccc(OCc2nc(C)c(C(=O)Nc3nc(-c4ccc(C)cc4)cs3)s2)cc1`: the RP-LC retention time is 1420 s.
Take `O=C(CSc1ncccn1)NCc1cc(-c2ccc(F)cc2)on1`: the RP-LC retention time was determined as 700 s.
Next, `Cc1ccc(CC(=O)N(CCS(=O)(=O)N2CCNCC2)CC2CCCO2)cc1` (centres undefined): 645 s.
Next, `CCS(=O)(=O)c1ccc(-c2ccc(NS(C)(=O)=O)cc2)nn1`: 643 s.
Turning to `COc1cc(OC)cc(C(=O)N2CCN(c3cc(=O)n(C(C)C)c(=O)n3C(C)C)CC2)c1`, the RP-LC retention time is 855 s.
Next, `COc1ccccc1CNS(=O)(=O)c1ccc(F)c(C(=O)Nc2cc(C)ccc2C)c1`: 967 s.
In the case of `O=C(CCC1CCCCC1)Nc1cccc(-c2cn3cccnc3n2)c1`, the RP-LC retention time was determined as 823 s.
`Cc1noc([C@@H]2CC(F)(F)CN2S(=O)(=O)c2ccccc2C)n1` gave an RP-LC retention time of 909 s.
`COc1cc(OC)cc(-c2nc(C3CC(=O)N(c4ccc(F)cc4)C3)no2)c1` (centres undefined) had an RP-LC retention time of 977 s.
Compound `Cc1[nH]c(C(=O)N2CCCC(C(=O)NCc3ccc(N(C)C)cc3)C2)c(C)c1C(=O)OC(C)C` (centres undefined) returned an RP-LC retention time of 681 s.
`O=C1NC(C(=O)Nc2ccc(F)c(F)c2)Cn2cccc21` (centres undefined): the RP-LC retention time amounted to 693 s.
Take `CC(C)C(=O)Nc1ccc(C2(C(=O)NCc3ccc(F)c(Cl)c3)CCC2)cc1`: the RP-LC retention time turned out to be 927 s.
Next, `Cc1nc2cc(-c3noc(-c4ccco4)n3)ccc2n(C2CCCC2)c1=O`: 927 s; `O=C(Nc1cnc(N2CCOCC2)nc1)c1cccc(Br)c1`: 828 s.
The compound `Cc1ccc(C(=O)OCCN2C(=O)c3ccccc3C2=O)cc1` registered an RP-LC retention time of 775 s.
Next, `CSc1ccc(CNC(=O)Cc2nnc(-c3cccc(F)c3)o2)cc1`: 794 s.
Regarding `O=C(NC1CCCC1)c1cc2sccc2n1Cc1ccc(F)cc1`, the RP-LC retention time was 1080 s.
Turning to `COc1ccc(NC(=O)c2nc(C(C)C)oc2C)cc1Cl`, the RP-LC retention time came out at 1080 s.
Compound `NC(=O)C1Cc2ccccc2N1C(=O)c1ccc([N+](=O)[O-])o1` (centres undefined) displayed an RP-LC retention time of 633 s.
On to `COc1ccc(CCN)cc1`, for which the RP-LC retention time came out at 574 s.
In turn, `Cc1ccc(NC(=O)Cn2c(-c3cnccn3)nc(C)c(C)c2=O)cc1F` came in with an RP-LC retention time of 793 s.
Next, `COc1cccc(CNC(=O)C2(C)CCCN(C(=O)Nc3cc(Cl)ccc3C)C2)c1` (centres undefined): 982 s; `CCCN1C(=O)c2cc(S(=O)(=O)NC(C)C)ccc2Oc2cccnc21`: 960 s; `Cc1nccn1Cc1noc(-c2ccc(Cl)cc2)n1`: 638 s.
As for `Cc1ccc(CNC(=O)C2Cn3cccc3C(=O)N2CC(C)C)o1` (centres undefined), the figure is 746 s.
As for `COc1ccccc1CNC1CCN(c2ccc(C(=O)NC3CC3)cn2)C1` (centres undefined), the figure is 552 s; as for `COc1ccc(NC(=O)c2cn(-c3cc(N4CCC(C)CC4)ncn3)cn2)c(OC)c1`, 1150 s; as for `Cc1nc(NCCCn2ccnc2)nc(Nc2ccccc2)c1[N+](=O)[O-]`, 589 s.
Turning to `COc1ccc(-c2noc(Cc3nnc(-c4cccc(OC)c4)o3)n2)cc1`, the RP-LC retention time came out at 992 s.
As for `Cc1cc(NC(=O)C2CCCN(c3cnc4nccnc4c3)C2)ccc1F` (centres undefined), the figure is 769 s.
As for `CCOc1ccc(CN2C[C@@H](COC)[C@H](c3ccncc3)C2)cc1OC`, the figure is 560 s.
As for `Cc1ccccc1-c1noc(Cn2ccn(-c3ccccc3C)c(=O)c2=O)n1`, the figure is 880 s; as for `C=CCNc1nc(-c2cccc([N+](=O)[O-])c2)cs1`, 949 s.
`O=C(Cn1ccc2sccc2c1=O)Nc1cccc(Br)c1` had an RP-LC retention time of 793 s.
The compound `CCOC(=O)C1=C(C)NC(=O)NC1c1cn(-c2ccccc2)nc1-c1ccc(OC)cc1` (centres undefined) showed an RP-LC retention time of 842 s.
As for `O=C(CC(=O)Nc1ccc2nc3n(c(=O)c2c1)CCCCC3)Nc1ccc(F)cc1`, the figure is 705 s.
As for `CC(C)n1c(=O)sc2cc(S(=O)(=O)N3CCC(C(=O)N(C)Cc4ccccc4)CC3)ccc21`, the figure is 997 s.
In turn, `CC1(O)CCOC2(CCN(Cc3cn[nH]c3-c3ccccc3)CC2)C1` (centres undefined) registered an RP-LC retention time of 584 s.
Next, `CN(C1CCCCC1)S(=O)(=O)c1ccc(C(=O)Nc2nc3c(s2)Cc2ccccc2-3)cc1`: 1260 s.
Compound `CN1C[C@@H](NS(=O)(=O)N(C)C)C[C@@H]2c3cccc4c3c(cn4C)C[C@H]21` returned an RP-LC retention time of 698 s.
As for `Cc1cccc(NS(=O)(=O)c2cc(-c3cc(C(F)(F)F)on3)sc2C)c1`, the figure is 1150 s; as for `Cc1ccccc1CNC(=O)C1CCCN(c2nc3ccsc3c(=O)n2Cc2ccc(F)cc2)C1` (centres undefined), 1010 s; as for `O=C(NCc1cccs1)c1ccnc(N2CCNC(c3ccccc3)C2)c1` (centres undefined), 631 s.
As for `COCc1cc(=O)n(CC(=O)Nc2ccccc2C)c(N)n1`, the figure is 603 s; as for `CC(C)CN1CCN(S(=O)(=O)c2ccc(-c3nnc(C4CC4)o3)o2)CC1`, 637 s; as for `O=S(=O)(Cc1ccccc1Cl)N1CCc2nc(-c3ccc(Cl)cc3)ncc2C1`, 1220 s.
In turn, `CCc1noc(-c2nc(-c3cc(OC)c(OC)c(OC)c3)no2)n1` yielded an RP-LC retention time of 892 s.
As for `CC1Cc2ccccc2N1C(=O)c1coc(NC(=O)c2ccco2)n1` (centres undefined), the figure is 724 s.
As for `CN(C)CCNC(=O)CS(=O)Cc1cnn(-c2ccccc2)c1-n1cccc1` (centres undefined), the figure is 603 s.
As for `COc1ccc(C(=O)NCCC2=CCCCC2)cc1`, the figure is 846 s; as for `O=C(CC1CCN(S(=O)(=O)c2ccc(Cl)s2)CC1)NCCc1c[nH]c2ccccc12`, 945 s; as for `Cc1ccc(NC(=O)C2CCN(S(=O)(=O)c3ccc4c(c3)sc(=O)n4C)CC2)cc1C`, 913 s.
In turn, `COc1ccccc1-c1noc(CN2C(=O)COc3ccccc32)n1` returned an RP-LC retention time of 880 s.
Next, `Cc1cc(C)c2c(-n3cccc3)nn(CC(=O)NCC3CCCO3)c2n1` (centres undefined): 753 s; `CCCN(CC1CC1)C(=O)CCC[C@@H]1[C@H]2CCCN3CCC[C@@H](CN1C(C)=O)[C@@H]23`: 618 s.
On to `C=CC(=O)Nc1ccc2ncnc(Nc3ccc(OCc4cccc(F)c4)c(Cl)c3)c2c1`, for which the RP-LC retention time is 825 s.
The compound `CC(C)CN1C(=O)c2ccccc2C(C(=O)NCCCN2CCOCC2)C1c1cccs1` (centres undefined) returned an RP-LC retention time of 644 s.
As for `Cc1ccc(-c2nc3nc(C)cc(C)n3c2Nc2ccc3c(c2)OCCO3)cc1`, the RP-LC retention time amounted to 704 s.
Next, `Cc1ccc(-n2nc(N3CCCC(C(=O)NC(C)CCc4ccccc4)C3)ccc2=O)cc1Cl` (centres undefined): 1060 s; `CCN1CCN(c2ncc3c(n2)CCN(Cc2cccc(C)c2)C3)CC1`: 529 s.
The compound `Cc1c(-c2nsc(Nc3ccccc3)n2)nnn1-c1cccc(Cl)c1` displayed an RP-LC retention time of 1070 s.
For `COc1cc([C@@H]2c3cc4c(cc3[C@H](O)[C@@H](CO)[C@@H]2C(=O)N2CCN(C(C)C)CC2)OCO4)cc(OC)c1OC`, the RP-LC retention time is 608 s.
Next, `CCn1cc(CCN2CCN(S(=O)(=O)c3ccc4c(c3)CCC4)CC2)c2cccnc21`: 702 s; `O=c1cc(Cn2nc3c(-c4nc(-c5ccccc5)no4)cccn3c2=O)nc2ccccn12`: 740 s; `Cn1cnc2c(C(=O)Nc3ccc(Cl)cc3)nn(-c3ccccc3)c2c1=O`: 954 s.
As for `O=C(C1CCN(c2cc(N3CCCCC3)ncn2)CC1)N1CCC(N2CCCCC2)CC1`, the RP-LC retention time worked out at 557 s.
`O=C(Cn1ccn2nc(-c3ccc(F)cc3)c(CO)c2c1=O)NCc1ccc2c(c1)OCO2` gave an RP-LC retention time of 778 s.
Compound `COc1cccc(-c2cc3n(n2)CCCN(Cc2cccnc2)C3)c1` came in with an RP-LC retention time of 526 s.
Compound `Cc1noc(C2CN(C(=O)c3ccc(C#N)cc3)CC23CCOCC3)n1` (centres undefined) gave an RP-LC retention time of 642 s.
Take `CC(Oc1cccc(Cl)c1)C(=O)NCC1(C)CCOCC1` (centres undefined): the RP-LC retention time worked out at 816 s.
Next, `CCn1c(=O)c(C)nc2cc(-c3noc(-c4cc(OC)cc(OC)c4)n3)ccc21`: 894 s; `COc1ccccc1Cc1noc(C2CN(C(=O)c3ccc(Cl)s3)C2)n1`: 892 s.
As for `CCCS(=O)(=O)N1CC(=O)N(c2ccc(F)cc2)C(C)(C(=O)NC2CCCCCC2)C1` (centres undefined), the figure is 938 s.
